In ChEMBL document CHEMBL3885881, “DrugMatrix”:

Organism: Rattus norvegicus
Format: toxicity, organism-based, Sprague-Dawley
Conditions: in vivo, po, 24 h, route oral GAVAGE, time 1 day; for ABSOLUTE BASOPHIL / ABSOLUTE EOSINOPHIL / ABSOLUTE LYMPHOCYTE / ABSOLUTE MONOCYTE / BASOPHIL / EOSINOPHIL / ERYTHROCYTE COUNT / HEMATOCRIT / HEMOGLOBIN / LEUKOCYTE COUNT / LYMPHOCYTE / MEAN CORPUSCULAR HEMOGLOBIN / MEAN CORPUSCULAR HEMOGLOBIN CONCENTRATION / MEAN CORPUSCULAR VOLUME / MONOCYTE / NEUTROPHIL / PLATELET COUNT: tissue Blood; for ALANINE AMINOTRANSFERASE / ALBUMIN / ALKALINE PHOSPHATASE / ASPARTATE AMINOTRANSFERASE / BLOOD UREA NITROGEN / CARBON DIOXIDE / CHLORIDE / CHOLESTEROL / CREATINE PHOSPHOKINASE / CREATININE / GLUCOSE / LIPASE / PHOSPHORUS / POTASSIUM / SODIUM / TOTAL BILIRUBIN / TOTAL PROTEIN / URIC ACID / LACTATE DEHYDROGENASE: tissue Plasma
[1] = 0 mg/kg, vehicle control, dose level Control, vehicle 100 % SALINE
[2] = 2 mg/kg, dose level High, vehicle 100 % SALINE
[3] = 0 mg/kg, dose level Control, vehicle .5 % CMC
[4] = 10 mg/kg, dose level Low, vehicle .5 % CMC
[5] = 100 mg/kg, dose level High, vehicle .5 % CMC

Description: DrugMatrix - Regimen: Single

Structure (SMILES): COc1cccc2c1C(=O)c1c(O)c3c(c(O)c1C2=O)C[C@@](O)(C(C)=O)C[C@@H]3O[C@H]1C[C@H](N)[C@H](O)[C@H](C)O1 [DAUNORUBICIN]
- ABSOLUTE BASOPHIL [1]: 73.3 cells/µL
- ABSOLUTE EOSINOPHIL [1]: 86.7 cells/µL
- ABSOLUTE LYMPHOCYTE [1]: 8400 cells/µL
- ABSOLUTE MONOCYTE [1]: 350 cells/µL
- BASOPHIL [1]: 0.63%
- EOSINOPHIL [1]: 0.73%
- ERYTHROCYTE COUNT [1]: 6.55 x10E6/uL
- HEMATOCRIT [1]: 42.83%
- HEMOGLOBIN [1]: 13.6 G/DL
- LEUKOCYTE COUNT [1]: 11.33 x10E3/uL
- LYMPHOCYTE [1]: 74.77%
- MEAN CORPUSCULAR HEMOGLOBIN [1]: 20.77 pg
- MEAN CORPUSCULAR HEMOGLOBIN CONCENTRATION [1]: 31.7 G/DL
- MEAN CORPUSCULAR VOLUME [1]: 65.53 fL
- MONOCYTE [1]: 3%
- NEUTROPHIL [1]: 20.2%
- PLATELET COUNT [1]: 1394.33 x10E3/uL
- ALANINE AMINOTRANSFERASE [1]: 34 u/L
- ALBUMIN [1]: 4.03 G/DL
- ALKALINE PHOSPHATASE [1]: 345.33 u/L
- ASPARTATE AMINOTRANSFERASE [1]: 69.67 u/L
- BLOOD UREA NITROGEN [1]: 14.33 mg/dL
- CARBON DIOXIDE [1]: 46 mmol/L
- CHLORIDE [1]: 102.67 MEQ/L
- CHOLESTEROL [1]: 85 mg/dL
- CREATINE PHOSPHOKINASE [1]: 292 u/L
- CREATININE [1]: 0.2 mg/dL
- GLUCOSE [1]: 168 mg/dL
- LIPASE [1]: 13 u/L
- PHOSPHORUS [1]: 11.2 mg/dL
- POTASSIUM [1]: 7.07 MEQ/L
- SODIUM [1]: 144.67 MEQ/L
- TOTAL BILIRUBIN [1]: 0.27 mg/dL
- TOTAL PROTEIN [1]: 6.57 G/DL
- URIC ACID [1]: 0.73 mg/dL
- ABSOLUTE BASOPHIL [2]: 30 cells/µL
- ABSOLUTE EOSINOPHIL [2]: 60 cells/µL
- ABSOLUTE LYMPHOCYTE [2]: 7160 cells/µL
- ABSOLUTE MONOCYTE [2]: 260 cells/µL
- BASOPHIL [2]: 0.33%
- EOSINOPHIL [2]: 0.67%
- ERYTHROCYTE COUNT [2]: 6.43 x10E6/uL
- HEMATOCRIT [2]: 42.57%
- HEMOGLOBIN [2]: 13.5 G/DL
- LEUKOCYTE COUNT [2]: 9.23 x10E3/uL
- LYMPHOCYTE [2]: 77.03%
- MEAN CORPUSCULAR HEMOGLOBIN [2]: 21.03 pg
- MEAN CORPUSCULAR HEMOGLOBIN CONCENTRATION [2]: 31.73 G/DL
- MEAN CORPUSCULAR VOLUME [2]: 66.3 fL
- MONOCYTE [2]: 2.83%
- NEUTROPHIL [2]: 18.5%
- PLATELET COUNT [2]: 1328.67 x10E3/uL
- ALANINE AMINOTRANSFERASE [2]: 37.33 u/L
- ALBUMIN [2]: 3.93 G/DL
- ALKALINE PHOSPHATASE [2]: 397.67 u/L
- ASPARTATE AMINOTRANSFERASE [2]: 67.67 u/L
- BLOOD UREA NITROGEN [2]: 13.67 mg/dL
- CARBON DIOXIDE [2]: 39.33 mmol/L
- CHLORIDE [2]: 104.67 MEQ/L
- CHOLESTEROL [2]: 84 mg/dL
- CREATINE PHOSPHOKINASE [2]: 230.33 u/L
- CREATININE [2]: 0.27 mg/dL
- GLUCOSE [2]: 179 mg/dL
- LACTATE DEHYDROGENASE [2]: 60.33 u/L
- LIPASE [2]: 9.67 u/L
- PHOSPHORUS [2]: 11.57 mg/dL
- POTASSIUM [2]: 6.13 MEQ/L
- SODIUM [2]: 146 MEQ/L
- TOTAL BILIRUBIN [2]: 0.2 mg/dL
- TOTAL PROTEIN [2]: 6.37 G/DL
- URIC ACID [2]: 1 mg/dL

Structure (SMILES): CN(C)CCN(Cc1cccs1)c1ccccn1
- ABSOLUTE EOSINOPHIL [3]: 47.5 cells/µL
- ABSOLUTE LYMPHOCYTE [3]: 8340 cells/µL
- ABSOLUTE MONOCYTE [3]: 260 cells/µL
- BASOPHIL [3]: 0.33%
- EOSINOPHIL [3]: 0.45%
- ERYTHROCYTE COUNT [3]: 6.31 x10E6/uL
- HEMATOCRIT [3]: 42.88%
- HEMOGLOBIN [3]: 13 G/DL
- LEUKOCYTE COUNT [3]: 10.38 x10E3/uL
- LYMPHOCYTE [3]: 80.53%
- MEAN CORPUSCULAR HEMOGLOBIN [3]: 20.6 pg
- MEAN CORPUSCULAR HEMOGLOBIN CONCENTRATION [3]: 30.3 G/DL
- MEAN CORPUSCULAR VOLUME [3]: 67.9 fL
- MONOCYTE [3]: 2.4%
- NEUTROPHIL [3]: 15.08%
- PLATELET COUNT [3]: 1192.5 x10E3/uL
- ALANINE AMINOTRANSFERASE [3]: 47 u/L
- ALBUMIN [3]: 3.55 G/DL
- ALKALINE PHOSPHATASE [3]: 460.75 u/L
- ASPARTATE AMINOTRANSFERASE [3]: 71.75 u/L
- BLOOD UREA NITROGEN [3]: 13.75 mg/dL
- CARBON DIOXIDE [3]: 36.75 mmol/L
- CHLORIDE [3]: 107.25 MEQ/L
- CHOLESTEROL [3]: 85.25 mg/dL
- CREATINE PHOSPHOKINASE [3]: 373 u/L
- CREATININE [3]: 0.67 mg/dL
- GLUCOSE [3]: 173.25 mg/dL
- LACTATE DEHYDROGENASE [3]: 241.25 u/L
- LIPASE [3]: 39.25 u/L
- PHOSPHORUS [3]: 13.5 mg/dL
- POTASSIUM [3]: 6.9 MEQ/L
- SODIUM [3]: 153 MEQ/L
- TOTAL BILIRUBIN [3]: 0.3 mg/dL
- TOTAL PROTEIN [3]: 6.05 G/DL
- URIC ACID [3]: 1.07 mg/dL
- ABSOLUTE BASOPHIL [4]: 50 cells/µL
- ABSOLUTE EOSINOPHIL [4]: 57.5 cells/µL
- ABSOLUTE LYMPHOCYTE [4]: 6900 cells/µL
- ABSOLUTE MONOCYTE [4]: 160 cells/µL
- BASOPHIL [4]: 0.62%
- EOSINOPHIL [4]: 0.68%
- ERYTHROCYTE COUNT [4]: 6.69 x10E6/uL
- HEMATOCRIT [4]: 45.23%
- HEMOGLOBIN [4]: 13.75 G/DL
- LEUKOCYTE COUNT [4]: 8.71 x10E3/uL
- LYMPHOCYTE [4]: 79.03%
- MEAN CORPUSCULAR HEMOGLOBIN [4]: 20.57 pg
- MEAN CORPUSCULAR HEMOGLOBIN CONCENTRATION [4]: 30.38 G/DL
- MEAN CORPUSCULAR VOLUME [4]: 67.67 fL
- MONOCYTE [4]: 1.82%
- NEUTROPHIL [4]: 16.77%
- PLATELET COUNT [4]: 1228.25 x10E3/uL
- ALANINE AMINOTRANSFERASE [4]: 48.75 u/L
- ALBUMIN [4]: 3.7 G/DL
- ALKALINE PHOSPHATASE [4]: 472.25 u/L
- ASPARTATE AMINOTRANSFERASE [4]: 65.25 u/L
- BLOOD UREA NITROGEN [4]: 13 mg/dL
- CARBON DIOXIDE [4]: 38.5 mmol/L
- CHLORIDE [4]: 107.25 MEQ/L
- CHOLESTEROL [4]: 86.75 mg/dL
- CREATINE PHOSPHOKINASE [4]: 250.75 u/L
- CREATININE [4]: 0.67 mg/dL
- GLUCOSE [4]: 167 mg/dL
- LACTATE DEHYDROGENASE [4]: 129.25 u/L
- LIPASE [4]: 38.5 u/L
- PHOSPHORUS [4]: 12.45 mg/dL
- POTASSIUM [4]: 6.83 MEQ/L
- SODIUM [4]: 153.75 MEQ/L
- TOTAL BILIRUBIN [4]: 0.3 mg/dL
- TOTAL PROTEIN [4]: 6.32 G/DL
- URIC ACID [4]: 0.98 mg/dL
- ABSOLUTE BASOPHIL [5]: 130 cells/µL
- ABSOLUTE EOSINOPHIL [5]: 55 cells/µL
- ABSOLUTE LYMPHOCYTE [5]: 9590 cells/µL
- ABSOLUTE MONOCYTE [5]: 430 cells/µL
- BASOPHIL [5]: 0.95%
- EOSINOPHIL [5]: 0.5%
- ERYTHROCYTE COUNT [5]: 6.9 x10E6/uL
- HEMATOCRIT [5]: 46.1%
- HEMOGLOBIN [5]: 14.12 G/DL
- LEUKOCYTE COUNT [5]: 11.89 x10E3/uL
- LYMPHOCYTE [5]: 80.6%
- MEAN CORPUSCULAR HEMOGLOBIN [5]: 20.48 pg
- MEAN CORPUSCULAR HEMOGLOBIN CONCENTRATION [5]: 30.62 G/DL
- MEAN CORPUSCULAR VOLUME [5]: 66.9 fL
- MONOCYTE [5]: 3.62%
- NEUTROPHIL [5]: 12.9%
- PLATELET COUNT [5]: 1177.75 x10E3/uL
- ALANINE AMINOTRANSFERASE [5]: 102.25 u/L
- ALBUMIN [5]: 3.6 G/DL
- ALKALINE PHOSPHATASE [5]: 460.75 u/L
- ASPARTATE AMINOTRANSFERASE [5]: 150.5 u/L
- BLOOD UREA NITROGEN [5]: 13.5 mg/dL
- CARBON DIOXIDE [5]: 37.75 mmol/L
- CHLORIDE [5]: 108 MEQ/L
- CHOLESTEROL [5]: 61.5 mg/dL
- CREATINE PHOSPHOKINASE [5]: 211.25 u/L
- CREATININE [5]: 0.67 mg/dL
- GLUCOSE [5]: 169.5 mg/dL
- LACTATE DEHYDROGENASE [5]: 94.25 u/L
- LIPASE [5]: 24.75 u/L
- PHOSPHORUS [5]: 13.18 mg/dL
- POTASSIUM [5]: 7.25 MEQ/L
- SODIUM [5]: 154.25 MEQ/L
- TOTAL BILIRUBIN [5]: 0.3 mg/dL
- TOTAL PROTEIN [5]: 6.08 G/DL
- URIC ACID [5]: 1.07 mg/dL
